Experimental data taken from patent US4861788A, “Antibacterial 1-normon-2-yl-heterocyclic compounds” (Beecham Group plc, priority 1983, dated 1989).
≈ marks a conversion by molar mass, not a printed value. Read-outs that look alike come from different tables or passages of the source.

What was measured:
M. hyopneumoniae NB12 = experiment: MIC against Mycoplasma in vitro (Friis broth with agarose); format: cell-based; conditions: Mesomycoplasma hyopneumoniae
Staph. aureus Oxford = experiment: MIC against veterinary bacteria in vitro (Diagnostic Sensitivity Test Agar); conditions: Staphylococcus aureus, 18 h
Method: (§2) The activity of the normonyl derivatives of the Examples against various veterinarily important bacteria, was assayed in vitro using two-fold serial dilutions in Diagnostic Sensitivity Test Agar inoculated with 10^4 organisms.

S. typhimurium S18 = experiment: as above; conditions: Salmonella enterica, 18 h
Method: as §2

M. hyorhinis ATCC 23234 = experiment: MIC against Mycoplasma in vitro (Friis broth with agarose); format: cell-based; conditions: Mesomycoplasma hyorhinis, ATCC23234, 144 h
[1] = system: M. hyosynoviae ATCC 25591; experiment: as above; format: cell-based; conditions: 144 h
[2] = system: M. hyopneumoniae NCTC 101101; experiment: as above; format: cell-based; conditions: Mesomycoplasma hyopneumoniae, NCTC101101, 144 h
Strep. uberis SPU1 = experiment: MIC against veterinary bacteria in vitro (Diagnostic Sensitivity Test Agar); conditions: Streptococcus uberis, SPU1, 18 h
Method: as §2

S. dublin S7 = experiment: as above; conditions: Salmonella enterica, S7, 18 h
Method: as §2

M. dispar NCTC 10125 = experiment: MIC against Mycoplasma in vitro (Friis broth with agarose); format: cell-based; conditions: 144 h
Past. multocida PA1 = experiment: MIC against veterinary bacteria in vitro (Diagnostic Sensitivity Test Agar); conditions: Pasteurella multocida, PA1, 18 h
Method: as §2

M. pneumoniae ATCC 15492 = experiment: MIC against Mycoplasma in vitro (Friis broth with agarose); format: cell-based; conditions: Mycoplasmoides pneumoniae, ATCC15492, 144 h
M. hyopneumoniae LABER = experiment: as above; format: cell-based; conditions: Mesomycoplasma hyopneumoniae, 144 h
Bord. bronchiseptica B08 = experiment: MIC against veterinary bacteria in vitro (Diagnostic Sensitivity Test Agar); conditions: Bordetella bronchiseptica, B08, 18 h
Method: as §2

E. coli NCTC 10418 = experiment: as above; conditions: Escherichia coli, NCTC10418, 18 h
Method: as §2

Strep. pneumoniae CN33 = experiment: MIC against human bacteria in vitro (nutrient agar, chocolated horse blood); format: cell-based; conditions: Streptococcus pneumoniae
Procedure, shortened: (§1)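 Compounds were tested in vitro by serial dilution in nutrient agar containing 5% chocolated horse blood, and the MIC was read as the lowest inhibitory concentration.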

[3] = system: Neisseria catarrhalis 1502; experiment: as above; format: cell-based
Procedure, shortened: as §1

[4] = system: Haemophilus influenzae Q1; experiment: as above; format: cell-based
Procedure, shortened: as §1

[5] = system: M. hyopneumoniae J2206/183^b; experiment: MIC against Mycoplasma in vitro (Friis broth with agarose); format: cell-based; conditions: Mesomycoplasma hyopneumoniae, 144 h
M. hyopneumoniae UCD 1 = experiment: as above; format: cell-based; conditions: Mesomycoplasma hyopneumoniae, UCD1, 144 h
M. hyopneumoniae JF 435 = experiment: as above; format: cell-based; conditions: Mesomycoplasma hyopneumoniae, JF435, 144 h
Past. multocida PA2 = experiment: MIC against veterinary bacteria in vitro (Diagnostic Sensitivity Test Agar); conditions: Pasteurella multocida, PA2, 18 h
Method: as §2

[6] = system: M. hyopneumoniae PW/C/210; experiment: MIC against Mycoplasma in vitro (Friis broth with agarose); format: cell-based; conditions: Mesomycoplasma hyopneumoniae, 144 h
[7] = system: Corynebacterium pyogenes CY1; experiment: MIC against veterinary bacteria in vitro (Diagnostic Sensitivity Test Agar); conditions: CY1, 18 h
Method: as §2

E. coli E1 = experiment: as above; conditions: Escherichia coli, E1, 18 h
Method: as §2

M. hyopneumoniae HK (2) = experiment: MIC against Mycoplasma in vitro (Friis broth with agarose); format: cell-based; conditions: Mesomycoplasma hyopneumoniae, 144 h
B. subtilis ATCC 6633 = experiment: MIC against veterinary bacteria in vitro (Diagnostic Sensitivity Test Agar); conditions: Bacillus subtilis, ATCC6633, 18 h
Method: as §2

[8] = 144 h, M. hyopneumoniae NB12, 6 days at 37° C, read-out: MIC
[9] = M. hyorhinis ATCC 23234, 6 days at 37° C, read-out: MIC
[10] = M. hyosynoviae ATCC 25591, 6 days at 37° C, read-out: MIC
[11] = M. hyopneumoniae NCTC 101101, 6 days at 37° C, read-out: MIC
[12] = M. dispar NCTC 10125, 6 days at 37° C, read-out: MIC
[13] = M. pneumoniae ATCC 15492, 6 days at 37° C, read-out: MIC
[14] = M. hyopneumoniae LABER, 6 days at 37° C, read-out: MIC
[15] = human, Neisseria catarrhalis 1502, 18 hours at 37° C, read-out: MIC
[16] = human, Haemophilus influenzae Q1, 18 hours at 37° C, read-out: MIC
[17] = M. hyopneumoniae J2206/183^b, 6 days at 37° C, read-out: MIC
[18] = M. hyopneumoniae UCD 1, 6 days at 37° C, read-out: MIC
[19] = M. hyopneumoniae JF 435, 6 days at 37° C, read-out: MIC
[20] = M. hyopneumoniae PW/C/210, 6 days at 37° C, read-out: MIC
[21] = human, Strep. pneumoniae CN33, 18 hours at 37° C, read-out: MIC
[22] = M. hyopneumoniae HK (2), 6 days at 37° C, read-out: MIC

Compound	MIC (M. hyopneumoniae NB12; [8]) [µg/mL]	MIC (Staph. aureus Oxford) [µg/mL]	MIC (S. typhimurium S18) [µg/mL]	MIC (M. hyorhinis ATCC 23234; [9]) [µg/mL]	MIC [1, 10] [µg/mL]	MIC [2, 11] [µg/mL]	MIC (Strep. uberis SPU1) [µg/mL]	MIC (S. dublin S7) [µg/mL]	MIC (Past. multocida PA1) [µg/mL]	MIC (M. pneumoniae ATCC 15492; [13]) [µg/mL]	MIC (M. hyopneumoniae LABER; [14]) [µg/mL]	MIC (Bord. bronchiseptica B08) [µg/mL]	MIC (E. coli NCTC 10418) [µg/mL]	MIC [3, 15] [µg/mL]	MIC [5, 17] [µg/mL]	MIC (M. hyopneumoniae UCD 1; [18]) [µg/mL]	MIC (M. hyopneumoniae JF 435; [19]) [µg/mL]	MIC (Past. multocida PA2) [µg/mL]	MIC [7] [µg/mL]	MIC (E. coli E1) [µg/mL]	further results
CC(=Cc1nnc(-c2ccccc2)o1)CC1OCC(CC2OC2C(C)C(C)O)C(O)C1O (stereo not drawn) [Example 1, 2-(1-Normon-2-yl)-5-phenyl-1,3,4-oxadiazole A]	2.5 (≈ 5.62 µM)	5 (≈ 11.2 µM)	> 80	2.5 (≈ 5.62 µM)	1 (≈ 2.25 µM)	5 (≈ 11.2 µM)	5 (≈ 11.2 µM)	> 80	10 (≈ 22.5 µM)	> 10	2.5 (≈ 5.62 µM)	> 80	> 80	2.5 (≈ 5.62 µM)	5 (≈ 11.2 µM)	5 (≈ 11.2 µM)	5 (≈ 11.2 µM)	1.25 (≈ 2.81 µM)	> 80	> 80	MIC (M. dispar NCTC 10125; [12]): 0.5 µg/mL (≈ 1.12 µM); MIC (Strep. pneumoniae CN33; CN33, 18 h): 100 µg/mL (≈ 225 µM); MIC [4, 16]: 2.5 µg/mL (≈ 5.62 µM); MIC [6, 20]: 2.5 µg/mL (≈ 5.62 µM)
CC(=Cc1nnc(-c2cccc([N+](=O)[O-])c2)o1)CC1OCC(CC2OC2C(C)C(C)O)C(O)C1O (stereo not drawn) [Example 2, 2-m-Nitrophenyl-5-(1-normon-2-yl)-1,3,4-oxadiazole A]		20 (≈ 40.9 µM)	> 80	0.025 (≈ 0.0511 µM)	0.5 (≈ 1.02 µM)		2.5 (≈ 5.11 µM)	> 80	2.5 (≈ 5.11 µM)	2.5 (≈ 5.11 µM)	0.025 (≈ 0.0511 µM)	> 80	> 80		0.025 (≈ 0.0511 µM)	0.025 (≈ 0.0511 µM)		1.25 (≈ 2.55 µM)	> 80	> 80	MIC (M. hyopneumoniae NB12; NB12, 144 h): 0.05 µg/mL (≈ 0.102 µM); MIC [2]: 0.05 µg/mL (≈ 0.102 µM); MIC (M. dispar NCTC 10125; [12]): < 0.01 µg/mL; MIC (M. hyopneumoniae HK (2)): 0.05 µg/mL (≈ 0.102 µM); MIC (Strep. pneumoniae CN33; [21]): 32 µg/mL (≈ 65.4 µM); MIC ([3]; Neisseria, 1502, 18 h): 0.5 µg/mL (≈ 1.02 µM); MIC (M. hyopneumoniae JF 435): 0.05 µg/mL (≈ 0.102 µM)
CC(=Cc1nnc(-c2ccc(S(C)(=O)=O)cc2)o1)CC1OCC(CC2OC2C(C)C(C)O)C(O)C1O (stereo not drawn) [Example 4, 2-p-Methylsulphonylphenyl-5-(1-normon-2-yl)-1,3,4-oxadiazole A]	0.25 (≈ 0.478 µM)	10 (≈ 19.1 µM)	> 80	0.1 (≈ 0.191 µM)	1 (≈ 1.91 µM)	0.5 (≈ 0.957 µM)	2.5 (≈ 4.78 µM)	> 80	2.5 (≈ 4.78 µM)	> 10	0.25 (≈ 0.478 µM)	> 80	> 80		0.5 (≈ 0.957 µM)	0.25 (≈ 0.478 µM)	0.25 (≈ 0.478 µM)	1.25 (≈ 2.39 µM)	> 80	> 80	MIC (M. hyopneumoniae HK (2); [22]): 0.25 µg/mL (≈ 0.478 µM); MIC (B. subtilis ATCC 6633): 5 µg/mL (≈ 9.57 µM); MIC [6, 20]: 0.1 µg/mL (≈ 0.191 µM)
CC(=CC(=O)NN)CC1OCC(CC2OC2C(C)C(C)O)C(O)C1O (stereo not drawn) [Example 9, Monohydrazide A]			> 80				80 (≈ 223 µM)	> 80	40 (≈ 112 µM)			> 80	> 80					80 (≈ 223 µM)	> 80	> 80	MIC (M. hyopneumoniae NB12; NB12, 144 h): 10 µg/mL (≈ 27.9 µM); MIC (M. hyorhinis ATCC 23234): > 10 µg/mL; MIC [1]: 10 µg/mL (≈ 27.9 µM); MIC [2]: 10 µg/mL (≈ 27.9 µM); MIC (M. dispar NCTC 10125): 2.5 µg/mL (≈ 6.97 µM); MIC (M. hyopneumoniae HK (2)): 10 µg/mL (≈ 27.9 µM); MIC (M. pneumoniae ATCC 15492): > 10 µg/mL; MIC (M. hyopneumoniae LABER): 5 µg/mL (≈ 13.9 µM); MIC (Strep. pneumoniae CN33; CN33, 18 h): ≥ 100 µg/mL; MIC ([3]; Neisseria, 1502, 18 h): 2.5 µg/mL (≈ 6.97 µM); MIC ([4]; Haemophilus influenzae, Q1, 18 h): 2.5 µg/mL (≈ 6.97 µM); MIC [5]: 10 µg/mL (≈ 27.9 µM); MIC (M. hyopneumoniae UCD 1): 10 µg/mL (≈ 27.9 µM); MIC (M. hyopneumoniae JF 435): 10 µg/mL (≈ 27.9 µM); MIC [6]: 5 µg/mL (≈ 13.9 µM)
CC(=Cc1nnc(-c2cccc(C#N)c2)o1)CC1OCC(CC2OC2C(C)C(C)O)C(O)C1O (stereo not drawn) [Example 11, 2-(m-Cyanophenyl)-5-(1-normon-2-yl)-1,3,4-oxadiazole A]		5 (≈ 10.6 µM)	> 80	0.1 (≈ 0.213 µM)	0.5 (≈ 1.06 µM)		2.5 (≈ 5.32 µM)	> 80	2.5 (≈ 5.32 µM)	> 10		> 80	> 80	0.25 (≈ 0.532 µM)	0.25 (≈ 0.532 µM)		0.25 (≈ 0.532 µM)	0.312 (≈ 0.664 µM)	> 80	> 80	MIC (M. hyopneumoniae NB12; NB12, 144 h): 0.25 µg/mL (≈ 0.532 µM); MIC [2]: 0.25 µg/mL (≈ 0.532 µM); MIC (M. dispar NCTC 10125): 0.05 µg/mL (≈ 0.106 µM); MIC (M. hyopneumoniae UCD 1): 0.25 µg/mL (≈ 0.532 µM); MIC (B. subtilis ATCC 6633): 2.5 µg/mL (≈ 5.32 µM); MIC [6, 20]: 0.1 µg/mL (≈ 0.213 µM)
CC(=Cc1nnnn1Cc1ccc([N+](=O)[O-])cc1)CC1OCC(CC2OC2C(C)C(C)O)C(O)C1O (stereo not drawn) [Example 12, 1-(p-Nitrobenzyl)-5-(1-normon-2-yl)tetrazole A]	5 (≈ 9.93 µM)	> 80	> 80	5 (≈ 9.93 µM)	2.5 (≈ 4.96 µM)	5 (≈ 9.93 µM)	80 (≈ 159 µM)	> 80	> 80	> 10		> 80	> 80	10 (≈ 19.9 µM)	5 (≈ 9.93 µM)	5 (≈ 9.93 µM)	5 (≈ 9.93 µM)	> 80	> 80	> 80	MIC (M. dispar NCTC 10125): 1 µg/mL (≈ 1.99 µM); MIC (M. hyopneumoniae HK (2); [22]): 5 µg/mL (≈ 9.93 µM); MIC (Strep. pneumoniae CN33; [21]): 100 µg/mL (≈ 199 µM); MIC [4, 16]: 1 µg/mL (≈ 1.99 µM); MIC [6, 20]: 2.5 µg/mL (≈ 4.96 µM)
COC(=O)CCCCCCCCn1nnnc1C=C(C)CC1OCC(CC2OC2C(C)C(C)O)C(O)C1O (stereo not drawn) [Example 13, 1-(8-Methoxycarbonyloctyl)-5-(1-normon-2-yl)-1H-tetrazole A]	> 10	40 (≈ 74.3 µM)	> 80	> 10	> 10	> 10	40 (≈ 74.3 µM)	> 80	40 (≈ 74.3 µM)	> 10	> 10	> 80	> 80	64 (≈ 119 µM)	> 10	> 10	> 10	5 (≈ 9.28 µM)	> 80	> 80	MIC (M. dispar NCTC 10125; [12]): > 10 µg/mL; MIC (M. hyopneumoniae HK (2); [22]): > 10 µg/mL; MIC (Strep. pneumoniae CN33; [21]): > 64 µg/mL; MIC [6, 20]: > 10 µg/mL
CC(=Cc1nnnn1CCCCCCCCC(=O)O)CC1OCC(CC2OC2C(C)C(C)O)C(O)C1O (stereo not drawn) [Example 14, Sodium 1-(8-carboxylatooctyl)-5-(1-normon-2-yl)-1H-tetrazole A]	> 10	> 80	> 80	> 10	> 10	> 10	> 80	> 80	80	> 10	> 10	> 80	> 80	> 128	> 10	> 10	> 10	1.25	> 80	> 80	MIC (M. dispar NCTC 10125; [12]): 10 µg/mL; MIC (M. hyopneumoniae HK (2); [22]): > 10 µg/mL; MIC (Strep. pneumoniae CN33; [21]): > 128 µg/mL
